Assay results taken from patent publication US20260217699A1, “BERBERINE TAUROURSODEOXYCHOLATE COMPOSITIONS AND METHODS THEREOF” (SHENZHEN HIGHTIDE BIOPHARMACEUTICAL LTD., priority 2023, published 2026).
Where two headings read alike, the source gives them in different places.

Assays:
[1] = Rapid dynamic vapor sorption (Fast DVS) of Form A; assay type: physicochemical
Procedure: (§1) The synthesized BTUDC was designated as crystalline form A (Form A), and its XRPD diffraction and other related characterization data are shown in FIGS. 11-15. […] (peak at 43° C.), and an endothermic peak at about 280° C.

[2] = Thermal transcrystallization experiment (variable temperature XRPD); assay type: physicochemical; conditions: heating to 150° C. and back to room temperature
Procedure: The form conversion by heating was carried out using an online variable temperature XRPD Malvern PANalytical Aeris (Malvern Panalytical, UK). The X-ray source was a Cu tube that was operated at 40 kV and 7.5 mA. Powder samples were prepared on zero-background Si holders using manual light pressure to keep the sample surface flat. Each sample was analyzed from 3 to 40° (2θ) with an effective step size of 0.02° 20. The measurement time of each sample was 13 min. The sample was placed on a BTS500 hot stage (Anton Paar, AT) to collected XRPD at RT, heated to the target temperature at 20° C./min and held for 10 min before XRPD analysis. The sample was then cooled to RT and characterized by XRPD.
as §1

[3] = assay type: physicochemical; conditions: for Purity/%: initial purity 99.45%
Procedure: The standard XRPD patterns were collected using a Panalytical EMPYREAN (PANalytical, UK). The X-ray source was a Cu tube that was operated at 45 kV and 40 mA. Powder samples were prepared on zero-background Si holders using manual light pressure to keep the sample surface flat. Each sample was analyzed from 3 to 45° (2θ) with an effective step size of 0.013° 20. The measurement time of each sample was 3.5 min.
The stability of Form A was studied under high temperature (60° C.), high humidity (25° C./92.5% RH), light (25° C./4500 Lux), and accelerated (40° C./75% RH) conditions, and the samples were taken at 7 and 15 days for XRPD characterization and HPLC tests, respectively, and the results are shown in Tables 3-4 and FIG. 17.

[4] = Accelerated 40° C./75% RH, 7 Days
[5] = Accelerated 40° C./75% RH, 15 Days
[6] = High Humidity 25° C./92.5% RH, 7 Days
[7] = High Humidity 25° C./92.5% RH, 15 Days
[8] = Light Exposure 25° C./4500 Lux, 7 Days
[9] = Light Exposure 25° C./4500 Lux, 15 Days

With COc1ccc2cc3[n+](cc2c1OC)CCc1cc2c(cc1-3)OCO2.C[C@H](CCC(=O)NCCS(=O)(=O)[O-])[C@H]1CC[C@H]2[C@@H]3[C@@H](O)C[C@@H]4C[C@H](O)CC[C@]4(C)[C@H]3CC[C@]12C [Form A, berberine tauroursodeoxycholate] the adsorption weight gain ([1]; at 80% RH) was “about 0.46%”, the desorption weight gain ([1]; at 80% RH) was “about 0.49%” and the adsorption weight gain ([1]; at 95% RH) was “about 0.74%”. For the same compound, the “change in crystalline shape after the DVS test (XRPD)” value ([1]; compared to the pre-test) was “did not undergo any change in crystalline shape”, the “crystalline form during heating” value [2] was “remained unchanged” and the “XRPD Changes” value [3, 4] was “No”. For the same compound, the Purity/% [3, 4] was 99.44%, the “XRPD Changes” value [3, 5] was “No” and the Purity/% [3, 5] was 99.41%. For the same compound, the “Relative Peak Area (%)” value ([3]; HPLC main peak RRT 1.00, Accelerated 15 Days, Day 0: 99.45) was 99.41%, the “Relative Peak Area (%)” value ([3]; HPLC main peak RRT 1.00, High Humidity 15 Days, Day 0: 99.45) was 99.44% and the “Relative Peak Area (%)” value ([3]; HPLC main peak RRT 1.00, High Temp. 15 Days, Day 0: 99.45) was 99.24%. The “Relative Peak Area (%)” value ([3]; HPLC main peak RRT 1.00, Light Exposure 15 Days, Day 0: 99.45) was 98.53%, the “Relative Peak Area (%)” value ([3]; HPLC peak RRT 0.39, Light Exposure 15 Days, Day 0: /) was 0.05% and the “Relative Peak Area (%)” value ([3]; HPLC peak RRT 0.55, Light Exposure 15 Days, Day 0: /) was 0.06%. The “Relative Peak Area (%)” value ([3]; HPLC peak RRT 0.70, Accelerated 15 Days, Day 0: 0.05) was 0.07%, the “Relative Peak Area (%)” value ([3]; HPLC peak RRT 0.70, High Humidity 15 Days, Day 0: 0.05) was 0.07% and the “Relative Peak Area (%)” value ([3]; HPLC peak RRT 0.70, High Temp. 15 Days, Day 0: 0.05) was 0.10%. For the same compound, the “Relative Peak Area (%)” value ([3]; HPLC peak RRT 0.70, Light Exposure 15 Days, Day 0: 0.05) was 0.77%, the “Relative Peak Area (%)” value ([3]; HPLC peak RRT 0.73, Light Exposure 15 Days, Day 0: /) was 0.03% and the “Relative Peak Area (%)” value ([3]; HPLC peak RRT 0.76, Light Exposure 15 Days, Day 0: /) was 0.07%. For the same compound, the “Relative Peak Area (%)” value ([3]; HPLC peak RRT 0.79, Light Exposure 15 Days, Day 0: /) was 0.05%, the “Relative Peak Area (%)” value ([3]; HPLC peak RRT 0.82, Accelerated 15 Days, Day 0: 0.13) was 0.13% and the “Relative Peak Area (%)” value ([3]; HPLC peak RRT 0.82, High Humidity 15 Days, Day 0: 0.13) was 0.13%. The “Relative Peak Area (%)” value ([3]; HPLC peak RRT 0.82, High Temp. 15 Days, Day 0: 0.13) was 0.13%, the “Relative Peak Area (%)” value ([3]; HPLC peak RRT 0.82, Light Exposure 15 Days, Day 0: 0.13) was 0.11% and the “Relative Peak Area (%)” value ([3]; HPLC peak RRT 0.84, Accelerated 15 Days, Day 0: 0.06) was 0.07%. The “Relative Peak Area (%)” value ([3]; HPLC peak RRT 0.84, High Humidity 15 Days, Day 0: 0.06) was 0.06%, the “Relative Peak Area (%)” value ([3]; HPLC peak RRT 0.84, High Temp. 15 Days, Day 0: 0.06) was 0.06% and the “Relative Peak Area (%)” value ([3]; HPLC peak RRT 0.84, Light Exposure 15 Days, Day 0: 0.06) was 0.06%. The “Relative Peak Area (%)” value ([3]; HPLC peak RRT 0.90, Accelerated 15 Days, Day 0: 0.31) was 0.32%, the “Relative Peak Area (%)” value ([3]; HPLC peak RRT 0.90, High Humidity 15 Days, Day 0: 0.31) was 0.30% and the “Relative Peak Area (%)” value ([3]; HPLC peak RRT 0.90, High Temp. 15 Days, Day 0: 0.31) was 0.48%. For the same compound, the “Relative Peak Area (%)” value ([3]; HPLC peak RRT 0.90, Light Exposure 15 Days, Day 0: 0.31) was 0.27%, the “XRPD Changes” value [3, 6] was “No” and the Purity/% [3, 6] was 99.44%. The “XRPD Changes” value [3, 7] was “No”, the Purity/% [3, 7] was 99.44% and the “XRPD Changes” value ([3]; High Temp. 60° C., 7 Days) was “No”. The Purity/% ([3]; High Temp. 60° C., 7 Days) was 99.28%, the “XRPD Changes” value ([3]; High Temp. 60° C., 15 Days) was “No” and the Purity/% ([3]; High Temp. 60° C., 15 Days) was 99.24%. The “XRPD Changes” value [3, 8] was “No”, the Purity/% [3, 8] was 98.92% and the “XRPD Changes” value [3, 9] was “No”. The Purity/% [3, 9] was 98.53%, the “change in chemical purity (HPLC)” value ([3]; high temperature, high humidity and accelerated conditions for 15 days) was “no significant change” and the “change in chemical purity (HPLC)” value ([3]; light conditions for 15 days) was “significant decrease”.
